Results taken from patent US20260078089A1, “BIOACTIVE PHYTOCHEMICALS IN ZIZYPHUS AND GUARANA” (Phytoquest Limited, priority 2018, published 2026).

Assays:
[1] = system: male ddy mouse; assay: Sucrose loading test, blood glucose in mice; type: in vivo; settings: oral sucrose 2.5 g/kg, test sample 500 mg/kg body weight, mean n = 5
Procedure: The animal experimental protocols in this study were approved by the Animal Experiments Committee of the University of Toyama (S-2010 UH-2). Male ddy mice (29-33 g) after an overnight fast were used for acute disaccharide loading tests. Maltose (2.5 g/kg body weight) or Sucrose (2.5 g/kg body weight) as well as the test samples were dissolved in 0.9% NaCl solution and administered to mice via a stomach tube. A control group was loaded with saline only.
Blood samples for glucose measurements were obtained from the tail vein at 0, 15, 30, 60, and 120 min after disaccharide-loading. The blood glucose levels were measured by a portable kit, Antsence II™ (Sankyo Co. Ltd. Tokyo, Japan). The Zizyphus extract HS0810/142/41 as well as the purified compounds were tested in this way.

[2] = target: T1, Amyloglucosidase (Aspergillus niger, UniProt P69328); assay: Glycosidase assay, p-nitrophenyl substrate; type: biochemical; settings: Aspergillus niger enzyme; screened at 0.14 mg mL−1 (footnote: 0.4 mM)
T1 construct: purchased Sigma Aldrich Chemicals Limited
Procedure: (§1) Glycosidase assays were conducted as described by Watson et al. (Phytochemistry 1997, 46, 255) using p-nitrophenyl-substrates (except sialidase which used methylumbeliferyl-N-acetyineuraminic acid as substrate). Assays were carried out in microtitre plates. Enzymes were assayed in 0.1 M citric acid/0.2 M di-sodium hydrogen phosphate (McIlvaine) buffers at the optimum pH for the enzyme. All assays were carried out at 20° C. All enzymes and substrates were purchased from Sigma Aldrich Chemicals Limited. The incubation mixture consisted of 10 μl of enzyme solution, 10 μl of the iminosugars solution and 50 μl of the appropriate 5 mM p-nitrophenyl substrate made up in McIlvaine buffer at the optimum pH for the enzyme. The reactions were stopped with 0.4 M glycine (pH 10.4) during the exponential phase of the reaction. Absorbances were read at 405 nm. Water was substituted for the alkaloids in the blanks. Reactions were carried out in triplicate.
(§2) Enzyme inhibitor solutions—Compounds were dissolved in distilled water at a concentration of 1 mg mL^−1 and then screened at a concentration of 0.14 mg mL^−1 after dilution of the 1 mg mL^−1 in the assay volumes of substrates.

[3] = system: N-acetyl-β-D-glucosaminidase; assay: Glycosidase assay, p-nitrophenyl substrate; type: biochemical; settings: screened at 0.14 mg mL−1 (footnote: 0.4 mM)
Procedure: as §1, §2

[4] = target: T2, α-D-galactosidase (Coffea arabica, UniProt Q42656); assay: Glycosidase assay, p-nitrophenyl substrate; type: biochemical; settings: Green coffee bean enzyme; screened at 0.14 mg mL−1 (footnote: 0.4 mM)
T2 construct: purchased Sigma Aldrich Chemicals Limited
Procedure: as §1, §2

[5] = target: T3, α-D-glucosidase (Oryza sativa subsp. japonica, UniProt Q653V7); assay: Glycosidase assay, p-nitrophenyl substrate; type: biochemical; settings: Rice enzyme; screened at 0.14 mg mL−1 (footnote: 0.4 mM)
T3 construct: purchased Sigma Aldrich Chemicals Limited
Procedure: as §1, §2

[6] = target: T4, α-D-mannosidase (Canavalia ensiformis, UniProt C0HJB3); assay: Glycosidase assay, p-nitrophenyl substrate; type: biochemical; settings: Jack bean enzyme; screened at 0.14 mg mL−1 (footnote: 0.4 mM)
T4 construct: purchased Sigma Aldrich Chemicals Limited
T4 sequence (C0HJB3 1-981): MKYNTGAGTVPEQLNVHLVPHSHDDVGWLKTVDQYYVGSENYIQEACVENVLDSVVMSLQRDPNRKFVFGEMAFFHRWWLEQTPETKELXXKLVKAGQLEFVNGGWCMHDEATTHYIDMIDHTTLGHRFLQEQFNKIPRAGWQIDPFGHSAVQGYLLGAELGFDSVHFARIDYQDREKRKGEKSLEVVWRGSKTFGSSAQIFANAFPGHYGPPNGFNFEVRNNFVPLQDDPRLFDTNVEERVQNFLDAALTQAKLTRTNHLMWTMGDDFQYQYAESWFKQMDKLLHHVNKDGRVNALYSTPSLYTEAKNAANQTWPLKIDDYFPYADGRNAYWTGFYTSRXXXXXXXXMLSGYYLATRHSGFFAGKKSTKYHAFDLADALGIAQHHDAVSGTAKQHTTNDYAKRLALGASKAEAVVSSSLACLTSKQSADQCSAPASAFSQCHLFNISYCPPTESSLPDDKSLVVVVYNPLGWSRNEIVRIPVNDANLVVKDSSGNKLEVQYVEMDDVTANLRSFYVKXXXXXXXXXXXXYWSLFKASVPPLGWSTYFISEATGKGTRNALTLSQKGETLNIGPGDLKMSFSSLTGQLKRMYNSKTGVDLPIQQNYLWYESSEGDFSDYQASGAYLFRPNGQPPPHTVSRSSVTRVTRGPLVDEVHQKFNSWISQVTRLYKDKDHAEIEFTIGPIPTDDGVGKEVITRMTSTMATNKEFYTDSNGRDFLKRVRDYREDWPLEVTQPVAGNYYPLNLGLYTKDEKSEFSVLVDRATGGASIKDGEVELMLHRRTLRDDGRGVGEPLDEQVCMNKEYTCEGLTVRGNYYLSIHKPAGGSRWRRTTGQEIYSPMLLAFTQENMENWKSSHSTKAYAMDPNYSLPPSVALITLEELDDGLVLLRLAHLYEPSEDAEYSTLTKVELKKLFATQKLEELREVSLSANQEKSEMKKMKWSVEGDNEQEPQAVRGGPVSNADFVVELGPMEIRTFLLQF
Procedure: as §1, §2

[7] = system: β-D-galactosidase; assay: Glycosidase assay, p-nitrophenyl substrate; type: biochemical; settings: Bovine liver enzyme; screened at 0.14 mg mL−1 (footnote: 0.4 mM)
Procedure: as §1, §2

[8] = system: sialidase (NanH from T. forsythia); assay: Sialidase assay with MUNANA substrate; type: biochemical, Tannerella forsythia; settings: 1 mM inhibitor, 2.5 nM sialidase, 0.1 mM MUNANA, pH 7.2
Procedure: (§3) Sialidase assays used 1 mM inhibitor (or water without inhibitor) and 2.5 nM sialidase (including NanH from T. forsythia) incubated in the presence of 0.1 mM methylumbeliferyl-N-acetylneuraminic acid, pH 7.2 in 20 mM sodium phosphate buffer. Reactions were stopped at 30 seconds and 60 seconds via addition of ph 10.5 60 mM sodium carbonate buffer. Release of fluorogenic MU was quantified by measuring fluorescence emission at 450 nm, excitation 350 nm. Percentage sialidase activity was expressed as the change in fluorescence between 30 seconds and 60 seconds compared to that of a reaction without inhibitor. Reactions were carried out in triplicate.
MU release can be used to quantify sialidase activity.
as §3, with “1” for “Sialidase assays used 1”, “forsythia) was” for “forsythia)”, “MUNANA,” for “methylumbeliferyl-N-acetylneuraminic acid,”, “7.2” for “7.2 in”, “Sodium Phosphate” for “sodium phosphate”

T3 sequence (Q653V7 34-885): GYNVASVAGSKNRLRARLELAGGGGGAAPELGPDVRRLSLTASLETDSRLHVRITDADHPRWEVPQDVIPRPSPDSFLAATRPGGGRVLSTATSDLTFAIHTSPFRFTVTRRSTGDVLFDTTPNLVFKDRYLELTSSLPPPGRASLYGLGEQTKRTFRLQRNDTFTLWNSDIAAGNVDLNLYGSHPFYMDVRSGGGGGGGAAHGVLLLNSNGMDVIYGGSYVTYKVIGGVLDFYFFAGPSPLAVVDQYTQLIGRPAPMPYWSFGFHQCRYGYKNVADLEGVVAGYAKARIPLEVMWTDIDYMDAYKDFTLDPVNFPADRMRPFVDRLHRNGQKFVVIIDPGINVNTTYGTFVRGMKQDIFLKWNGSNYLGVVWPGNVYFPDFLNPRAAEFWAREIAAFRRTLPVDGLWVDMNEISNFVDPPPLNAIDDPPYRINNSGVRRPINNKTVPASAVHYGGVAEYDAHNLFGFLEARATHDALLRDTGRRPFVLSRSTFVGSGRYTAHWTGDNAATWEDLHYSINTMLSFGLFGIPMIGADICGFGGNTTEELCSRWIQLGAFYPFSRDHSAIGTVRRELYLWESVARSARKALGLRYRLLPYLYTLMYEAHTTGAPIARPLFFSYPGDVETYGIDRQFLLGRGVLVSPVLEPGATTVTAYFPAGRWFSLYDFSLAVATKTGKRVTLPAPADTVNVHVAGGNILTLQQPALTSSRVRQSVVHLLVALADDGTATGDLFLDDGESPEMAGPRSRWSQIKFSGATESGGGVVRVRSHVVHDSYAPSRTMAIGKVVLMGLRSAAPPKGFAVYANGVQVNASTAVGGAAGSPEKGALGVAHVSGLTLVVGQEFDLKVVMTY
T2 sequence (Q42656 16-378): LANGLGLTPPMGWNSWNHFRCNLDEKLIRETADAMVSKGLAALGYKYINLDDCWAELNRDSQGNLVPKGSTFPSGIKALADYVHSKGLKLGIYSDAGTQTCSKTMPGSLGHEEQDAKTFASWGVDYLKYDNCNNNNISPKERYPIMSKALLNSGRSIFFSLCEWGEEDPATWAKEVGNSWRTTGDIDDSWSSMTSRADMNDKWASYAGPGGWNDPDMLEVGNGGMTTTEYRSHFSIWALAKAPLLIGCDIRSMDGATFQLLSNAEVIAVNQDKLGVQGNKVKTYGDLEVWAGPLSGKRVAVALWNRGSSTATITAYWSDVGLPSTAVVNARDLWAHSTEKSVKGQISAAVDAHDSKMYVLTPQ
T1 sequence (P69328 25-640): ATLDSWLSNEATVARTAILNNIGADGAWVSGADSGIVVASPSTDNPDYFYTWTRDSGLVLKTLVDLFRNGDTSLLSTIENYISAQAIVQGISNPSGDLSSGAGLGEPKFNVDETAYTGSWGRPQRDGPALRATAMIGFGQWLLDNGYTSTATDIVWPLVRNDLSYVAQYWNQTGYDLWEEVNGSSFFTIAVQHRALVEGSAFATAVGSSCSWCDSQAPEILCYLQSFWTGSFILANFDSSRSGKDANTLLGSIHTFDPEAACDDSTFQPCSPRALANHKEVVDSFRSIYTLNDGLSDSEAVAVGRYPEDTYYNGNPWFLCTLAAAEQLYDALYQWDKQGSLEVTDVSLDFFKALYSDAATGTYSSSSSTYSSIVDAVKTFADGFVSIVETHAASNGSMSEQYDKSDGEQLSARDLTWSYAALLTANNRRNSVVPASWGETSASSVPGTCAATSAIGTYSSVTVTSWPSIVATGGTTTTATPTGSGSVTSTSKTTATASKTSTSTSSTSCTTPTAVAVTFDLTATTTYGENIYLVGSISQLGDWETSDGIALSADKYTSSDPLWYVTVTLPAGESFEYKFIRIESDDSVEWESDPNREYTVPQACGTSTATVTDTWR

Q: How did the blood glucose ([1]; 0 min after administration) turn out when `OC[C@H]1N[C@H](CO)[C@@H](O)[C@@H]1O` [DMDP] was run?
A: 98 mg/dL

Q: What about the blood glucose ([1]; 15 min after administration) of the same molecule?
A: 115 mg/dL

Q: And the blood glucose ([1]; 30 min after administration)?
A: 100 mg/dL

Q: What about the blood glucose ([1]; 60 min after administration) of the same molecule?
A: 88 mg/dL

Q: What about the blood glucose ([1]; 120 min after administration) of the same molecule?
A: 53 mg/dL

Q: What about the “% inhibition” value [2] of the same molecule?
A: 46.84%

Q: What about the “% inhibition” value ([3]; Bovine kidney enzyme) of the same molecule?
A: −7.60%

Q: What about the “% inhibition” value ([3]; Jack bean enzyme) of the same molecule?
A: −6.65%

Q: What about the “% inhibition” value [4] of the same molecule?
A: 6.95%

Q: What about the “% inhibition” value [5] of the same molecule?
A: 94.59%

Q: What about the “% inhibition” value [6] of the same molecule?
A: 2.70%

Q: What about the “% inhibition” value [7] of the same molecule?
A: 98.75%

Q: And the “% inhibition” value [8]?
A: −2%
